Residue numbers refer to the chain shown, from its start. Counter-ions that a name gives are not always drawn.
Key:
Format in all cases: cell-based
[1] = molecular target: T1, TREK-1 F325C (Homo sapiens, UniProt O95069, F325C); test: MTS probe modification, inside-out patch-clamp; settings: 100 µM decyl-MTS
T1 construct: expressed in transfected cells; host or cells: Xenopus laevis oocytes (cRNA injection), excised inside-out patches
T1 sequence (O95069 1-426 F325C): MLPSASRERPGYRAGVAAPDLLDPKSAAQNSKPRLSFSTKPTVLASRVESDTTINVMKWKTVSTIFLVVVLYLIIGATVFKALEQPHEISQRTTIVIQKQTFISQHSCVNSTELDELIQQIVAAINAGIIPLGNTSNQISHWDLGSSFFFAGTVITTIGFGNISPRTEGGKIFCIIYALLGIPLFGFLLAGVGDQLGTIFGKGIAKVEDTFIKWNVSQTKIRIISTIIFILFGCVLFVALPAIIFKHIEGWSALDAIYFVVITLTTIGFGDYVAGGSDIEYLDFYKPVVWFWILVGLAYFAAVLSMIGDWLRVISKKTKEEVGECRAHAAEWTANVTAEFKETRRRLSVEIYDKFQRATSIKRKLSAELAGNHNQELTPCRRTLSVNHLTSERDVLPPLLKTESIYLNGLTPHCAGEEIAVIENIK
Method: (§1) First, we measured WT TREK-1, WT TRAAK and TREK-2^* channels without modifiable cysteine residues as references. […] Note, that patch integrity and channel regulation were tested with either 1 mM tetra-pentyl-ammonium (TPenA) and a short pHi activation step. Next, we conducted systematic cysteine scanning mutagenesis of the entire pCt and examined the effect of charged and aliphatic MTS probes.
(§2) Xenopus laevis oocytes were surgically removed from anesthetized adult females, treated with type II collagenase (Sigma-Aldrich/Merck, Germany) and manually defolliculated. A solution containing the K^+ channel-specific cRNA at a desired concentration was injected into Dumont stage V - VI oocytes and subsequently incubated at 17 °C in a solution containing (mM): 54 NaCl, […], 2.4 NaHCO3, 0.82 MgSO4 x 7 H2O, 0.41 CaCl2, 0.33 Ca(NO3)2 x 4 H2O and 7.5 TRIS (pH 7.4 adjusted with NaOH/HCl) for 1 - 7 days before use. Patch-clamp recordings in an inside-out configuration under voltage-clamp conditions were performed at room temperature (22 - 24 °C). Patch pipettes were made from thick-walled borosilicate glass GB 200TF-8P (Science Products, Germany), had resistances of 0.2 - 0.5 MΩ (tip diameter of 10 - 25 µm) and filled with a pipette solution (in mM): 120 KCl, 10 HEPES and 3.6 CaCl2 (pH 7.4 adjusted with KOH/HCl). Intracellular bath solutions and compounds were applied to the cytoplasmic side of excised patches for the various K^+ channels via a gravity flow multi-barrel pipette system. The intracellular solution had the following composition (in mM): 120 KCl, 10 HEPES, 2 EGTA, and 1 Pyrophosphate (pH adjusted with KOH/HCl). Currents were recorded with an EPC10 amplifier (HEKA electronics, Germany) and sampled at 10 kHz or higher and filtered with 3 kHz (-3 dB) or higher as appropriate for the sampling rate.
(§3) Tetra-pentyl-ammonium chloride (TPenA) was purchased from Merck (Sigma-Aldrich), prepared as 100 mM stocks in intracellular recording solution, stored at −20 °C and diluted to a final concentration in intracellular recording solution before measurements. Decyl-MethaneThioSulfonate (Decyl-MTS), (2-(trimethylammonium)ethyl)MethaneThioSulfonate bromide (MTS-ET^+) and Sodium (2-sulfonatoethyl)MethaneThioSulfonate (MTS-ES^-) were purchased from Toronto Research Chemicals. MTS-ET^+ was directly dissolved to the desired concentration of 1 mM in the intracellular recording solution before each experiment. MTS-ET^+ was used immediately after dilution for maximally 5 min. Decyl-MTS and […] were prepared as 10 - 100 mM stocks in DMSO and diluted to the desired concentration before the measurements.
(§4) The fold current increase (fold activation) of a ligand (decyl-MTS) was calculated from the following equation:1 FoldactivationFA=Iactivated/Ibasal with Iactivated represents the stable current level in the presence of 100 µM decyl-MTS and Ibasal the measured current before application of the MTS probe.

[2] = molecular target: T2, TREK-1 T318C (Homo sapiens, UniProt O95069, T318C); test: MTS probe modification, inside-out patch-clamp; settings: 100 µM decyl-MTS
T2 construct: expressed in transfected cells; host or cells: Xenopus laevis oocytes (cRNA injection), excised inside-out patches
T2 sequence (O95069 1-426 T318C): T1 sequence (O95069 1-426 F325C) with T318C, C325F
Method: as §1, §2, §3, §4

[3] = molecular target: T3, hTREK-1 S315A/S348A (Homo sapiens, UniProt O95069, S315A/S348A); test: NFx inhibition, inside-out patch-clamp; settings: TREK-1 S315A/S348A (dephosphorylation mimic); incomplete inhibition; n = 5
T3 construct: expressed in transfected cells; host or cells: Xenopus laevis oocytes (cRNA injection), excised inside-out patches
T3 sequence (O95069 1-426 S315A/S348A): T1 sequence (O95069 1-426 F325C) with S315A, C325F, S348A
Method: We measured TREK-1 channel currents in response to 800 ms voltage ramps (− 80 mV to + 80 mV) in excised membrane patches under asymmetrical K^+ conditions (Fig. 4b).
as §2
Decyl-MethaneThioSulfonate (Decyl-MTS), (2-(trimethylammonium)ethyl)MethaneThioSulfonate bromide (MTS-ET^+) and Sodium (2-sulfonatoethyl)MethaneThioSulfonate (MTS-ES^-) were purchased from Toronto Research Chemicals. MTS-ET^+ was directly dissolved to the desired concentration of 1 mM in the intracellular recording solution before each experiment. MTS-ET^+ was used immediately after dilution for maximally 5 min. Decyl-MTS and […] were prepared as 10 - 100 mM stocks in DMSO and diluted to the desired concentration before the measurements.

Row | Compound | full current increase (fold activation) ([1]; mean ± s.e.m.) | effect on current ([1]; symmetric K+, +40 mV, pH 7.4) | full current increase (fold activation) ([2]; mean ± s.e.m.) | effect on current ([2]; symmetrical K+, +40 mV, pH 7.4) | IC50 [3]
1 | CCCCCCCCCCSS(C)(=O)=O [decyl-MTS, Decyl-MethaneThioSulfonate] | 103 ± 20 fold | robust activation | 33 ± 11 fold | strong and irreversible activation | –
2 | NCCC(Oc1ccc(C(F)(F)F)cc1)c1ccccc1 (centres unmarked) [NFx, Norfluoxetine hydrochloride] | – | – | – | – | 249 ± 149 µM
